In paper PMC9757636, “The effectiveness of newly synthesized quaternary ammonium salts differing in chain length and type of counterion against priority human pathogens” (Scientific Reports, 2022):
Read-outs that look alike come from different tables or passages of the source. Marks after values point to notes of the source that are not given here.

Tests used:
[1] = tested on: Salmonella typhimurium TA98; assay: Mutagenicity (Ames test); assay type: cell-based; settings: for Number of colonies: ± SD
Procedure: (§1) Two reference strains of Salmonella Typhimurium TA98 and Salmonella Typhimurium TA100, deficient in histidine synthesis, were used for this study according to the method proposed by Ames et al. with modifications. […] The mixture was mixed and poured onto a Davis minimal medium plate. The mixture without the test compound was used as a negative control. The positive control was a mixture of bacterial culture, biotin-histidine solution, and sodium azide (at a concentration of 15 μg/mL for strain TA100) or acriflavine (at a concentration of 100 μg/mL for strain TA98). Plates were incubated for 48 h at 37 °C, and then colonies were counted. The mutagenicity ratio (MR), the ratio of the number of revertants grown in the presence of the test compound to the number of spontaneously occurring revertants (negative control), was calculated. A mutagenic ratio equal to or greater than 1.7 indicates the mutagenic potential of the tested compounds. The study was performed in three times.

[2] = tested on: Salmonella typhimurium TA100; assay: Mutagenicity (Ames test); assay type: cell-based; settings: for Number of colonies: ± SD
Procedure: as §1

P. aeruginosa PAO1 [3] = assay: Adhesion to stainless steel; assay type: cell-based, Pseudomonas aeruginosa; settings: P. aeruginosa PAO1; 1280 µM
P. aeruginosa ATCC 27853 = assay: MIC/MBC microdilution; assay type: cell-based, Pseudomonas aeruginosa; settings: for MIC / MBC: Pseudomonas aeruginosa; for MIC: ATCC27853, 24 h, read-out: Minimal inhibitory concentration (MIC); for MBC: ATCC27853, P. aeruginosa ATCC 27853, read-out: Minimal bactericidal concentration (*MBC)
Procedure: (§2) The minimum inhibitory concentration (MIC) of the tested monomeric QAS was performed using the microdilution method according to CLSI recommendation (M27-A3). Concentrations from 10 to 1280 µM were analyzed. Strains were incubated with or without compounds (growth control) for 24 h at 37 °C. Three independent replicates were performed. The MIC value was determined spectrophotometrically and the concentration that inhibited more than 90% of growth was determined. Optical density was measured at λ = 590 nm using a 96-well microplate reader (Bio-Rad Universal Hood II).
(§3) To determine the minimum bactericidal concentration (MBC), 10 µL of bacterial suspension incubated with monomeric QAS (MIC concentration and two times higher) was transferred to plates with LB (1% tryptone, 1% yeast extract, 0.5% NaCl) medium. […] The concentration that reduced 99.9% of microbial growth was determined as MBC[54].

P. aeruginosa PAO1 [4] = assay: MIC/MBC microdilution; assay type: cell-based, Pseudomonas aeruginosa; settings: for MBC / MIC: Pseudomonas aeruginosa; for MBC: read-out: Minimal bactericidal concentration (*MBC); for MIC: read-out: Minimal inhibitory concentration (MIC)
Procedure: as §2, §3

[5] = tested on: S. epidermidis ATCC 35984; assay: Adhesion to stainless steel; assay type: cell-based, Staphylococcus epidermidis; settings: 1280 µM
S. epidermidis B374 [6] = assay: MIC/MBC microdilution; assay type: cell-based, Staphylococcus epidermidis
Procedure: as §2, §3

S. epidermidis SI8 = assay: MIC/MBC microdilution; assay type: cell-based, Staphylococcus epidermidis; settings: for MBC: 99.9% reduction, read-out: Minimal bactericidal concentration (*MBC); for MIC: 24 h, 37 °C, >90% growth inhibition, read-out: Minimal inhibitory concentration (MIC)
Procedure: as §2, §3

[7] = tested on: S. epidermidis ATCC 35984; assay: MIC/MBC microdilution; assay type: cell-based, Staphylococcus epidermidis; settings: for MBC: read-out: Minimal bactericidal concentration (*MBC); for MIC: 37 °C, >90% growth inhibition, read-out: Minimal inhibitory concentration (MIC)
Procedure: as §2, §3

E. coli H64 = assay: MIC/MBC microdilution; assay type: cell-based, Escherichia coli; settings: for MIC / MBC: Escherichia coli; for MIC: H64, 24 h, read-out: Minimal inhibitory concentration (MIC); for MBC: H64, E. coli H64, read-out: Minimal bactericidal concentration (*MBC)
Procedure: as §2, §3

E. coli ATCC 11229 = assay: MIC/MBC microdilution; assay type: cell-based, Escherichia coli
Procedure: as §2, §3

[8] = Critical micelle concentration by conductometric measurements; assay type: physicochemical; settings: aqueous solution, 25 °C
Procedure: Values of critical micelle concentrations (CMC) of cationic surfactants were measured conductrometrically. N5721 conductometer (Tel-Eko Projekt sp z o.o., Poland), equipped with N5981 probe, was calibrated using 0.1 M, 0.01 M and 0.001 M KCl aqueous solutions (conductivities equal to 1.287 S/m, 0.141 S/m and 0.0147 S/m, respectively) and used without temperature compensation mode (constant temperature 25 °C was kept during all calibration procedures and measurements). Values of specific conductivities of at least 15 different concentrations for each surfactant were measured and plotted versus concentration; the discontinuity point was used to determine critical micelle concentration.

[9] = tested on: S. epidermidis ATCC 35984 biofilm; assay: Biofilm eradication; assay type: cell-based, Staphylococcus epidermidis; settings: 10 µM, 4 h
Procedure: (§4) Biofilm eradication assay was performed according to the method of Christensen et al. with modifications. A standardized bacterial (OD = 0.6) suspension of 100 µL was spotted into a 96-well polystyrene plate. They were incubated for 24 h at 37 °C. Cultures were removed, the plate was washed and then concentrations of QAS ([…]) were added, incubated for 4 h at 37 °C with 100 rpm shaking. The wells were washed with miliQ and fixed at 60 °C for 20 min. The wells were […] with 0.1% crystal violet solution for 5 min. The wells were washed with miliQ until the unfixed dye was completely eluted. The absorbance at λ = 590 nm was measured using a reader (Bio-Rad Universal Hood II). The positive control was an untreated biofilm. Three independent test trials were performed.

S. aureus ATCC 6538 = assay: MIC/MBC microdilution; assay type: cell-based, Staphylococcus aureus; settings: for MIC: 24 h, 37 °C, >90% growth inhibition, read-out: Minimal inhibitory concentration (MIC); for MBC: 99.9% reduction, read-out: Minimal bactericidal concentration (*MBC)
Procedure: as §2, §3

S. aureus MRSA R98 = assay: MIC/MBC microdilution; assay type: cell-based, Staphylococcus aureus; settings: for MBC / MIC: Staphylococcus aureus, MRSA; for MBC: read-out: Minimal bactericidal concentration (*MBC); for MIC: read-out: Minimal inhibitory concentration (MIC)
Procedure: as §2, §3

S. epidermidis B374 [10] = assay: Adhesion to stainless steel; assay type: cell-based, Staphylococcus epidermidis; settings: 1280 µM, ranges given over several strains
S. epidermidis B374 [11] = assay: Adhesion to polystyrene plate; assay type: cell-based, Staphylococcus epidermidis; settings: 1280 µM
Procedure: (§5) Adhesion analysis to polystyrene surfaces was determined according to the method of Rodrigues et al. with modifications. Polystyrene 96-well plates were incubated with the respective compound concentrations (10–1280 µM) for 4 h at 37 °C with 100 rpm shaking. The plates were then washed with miliQ and inoculated with 100 µL of bacterial suspension (OD = 0.4–0.6). Plates were incubated for 6 h at 37 °C with 100 rpm shaking. Wells were rinsed and fixed for 20 min at 60 °C. They were then […] with 0.1% crystal violet solution for 5 min. The wells were washed with miliQ until the unfixed dye was completely eluted. The absorbance at λ = 590 nm was measured using a reader (Bio-Rad Universal Hood II). The positive control was a surface not treated with QAS. Three independent trials were performed.

[12] = tested on: S. epidermidis ATCC 35984; assay: Adhesion to polystyrene plate; assay type: cell-based, Staphylococcus epidermidis; settings: 1280 µM, range given over two strains
Procedure: as §5

P. aeruginosa PAO1 [13] = assay: Adhesion to glass; assay type: cell-based, Pseudomonas aeruginosa; settings: concentration not given
[14] = tested on: S. epidermidis B374 biofilm; assay: Biofilm eradication; assay type: cell-based, Staphylococcus epidermidis; settings: 160 µM, 4 h
Procedure: as §4

[15] = P. aeruginosa ATCC 27853, 24 h, 37 °C, >90% growth inhibition
[16] = 24 h, 37 °C, >90% growth inhibition
[17] = Staphylococcus epidermidis, ATCC35984, 99.9% reduction
[18] = Staphylococcus epidermidis, ATCC35984, 24 h
[19] = E. coli H64, 24 h, 37 °C, >90% growth inhibition
[20] = Staphylococcus aureus, ATCC6538, 24 h, S. aureus ATCC 6538
[21] = Staphylococcus aureus, ATCC6538, S. aureus ATCC 6538
[22] = E. coli ATCC 11229, 99.9% reduction
[23] = E. coli ATCC 11229, 24 h, 37 °C, >90% growth inhibition

SMILES | Mutagenicity index ([1]; ¼ MIC) | Number of colonies ([1]; ¼ MIC) | Mutagenicity index ([1]; ½ MIC) | Number of colonies ([1]; ½ MIC) | Mutagenicity index ([2]; ¼ MIC) | Number of colonies ([2]; ¼ MIC) | Mutagenicity index ([2]; ½ MIC) | Number of colonies ([2]; ½ MIC) | MIC (P. aeruginosa ATCC 27853; [15]) [µM] | MBC (P. aeruginosa ATCC 27853; 99.9% reduction) [µM] | MBC (P. aeruginosa PAO1 [4]; 99.9% reduction) [µM] | MIC (P. aeruginosa PAO1 [4]; [16]) [µM] | adhesion to stainless steel (remaining) [5] [%] | MBC (S. epidermidis SI8; Staphylococcus epidermidis) [µM] | MIC (S. epidermidis SI8; Staphylococcus epidermidis) [µM] | MBC [7, 17] [µM] | MIC [7, 18] [µM] | MIC (E. coli H64; [19]) [µM] | MBC (E. coli H64; 99.9% reduction) [µM] | CMC [8] [mol/L] | other results
CC(=O)[O-].CCCCCCCCCCCC(=O)N(C)CCC[N+](C)(C)C [AcC12] | 0.96 | 22 ± 5.3 | 0.91 | 20.8 ± 4.4 | 0.94 | 264.7 ± 15 | 1.08 | 304 ± 11.3 | > 1280 | > 1280 | > 1280 | > 1280 | 13 to 30 | 640 | 640 | 640 | 640 | 1280 | 1280 | 0.018 | adhesion to stainless steel (remaining) (P. aeruginosa PAO1 [3]): 13 to 30%; MIC (S. epidermidis B374 [6]; Staphylococcus epidermidis, B374, 24 h, S. epidermidis B374, 24 h, 37 °C, >90% growth inhibition, read-out: Minimal inhibitory concentration (MIC)): 320 µM; MBC (S. epidermidis B374 [6]; Staphylococcus epidermidis, B374, S. epidermidis B374, 99.9% reduction, read-out: Minimal bactericidal concentration (*MBC)): 320 µM; MIC (E. coli ATCC 11229; Escherichia coli, ATCC11229, 24 h, E. coli ATCC 11229, 24 h, 37 °C, >90% growth inhibition, read-out: Minimal inhibitory concentration (MIC)): 1280 µM; MBC (E. coli ATCC 11229; Escherichia coli, ATCC11229, E. coli ATCC 11229, 99.9% reduction, read-out: Minimal bactericidal concentration (*MBC)): 1280 µM; biofilm destruction [9]: approximately 40%; MIC (S. aureus ATCC 6538; [20]): 1280 µM; MBC (S. aureus ATCC 6538; [21]): 1280 µM; MBC (S. aureus MRSA R98; 99.9% reduction): 640 µM; MIC (S. aureus MRSA R98; [16]): 640 µM
CCCCCCCCCCCCN(C)CCC[N+](C)(C)C.COC(=O)[O-] [MeC12, [(3-dodecyilomethyloamine)propyl] trimethylammonium methylcarbonate] | 0.75 | 17 ± 3.6 | 0.92 | 21 ± 3.6 | 0.74 | 208 ± 17 | 0.94 | 264 ± 11.3 |  |  |  |  |  |  |  |  |  |  |  | 0.014 | inhibition of adhesion to stainless steel (S. epidermidis B374 [10]): 69–88%; Minimal bactericidal concentration (*MBC) (P. aeruginosa ATCC 27853; P. aeruginosa ATCC 27853, 99.9% reduction): > 1280 * > 1280 µM; Minimal inhibitory concentration (MIC) (P. aeruginosa ATCC 27853; [15]): > 1280 * > 1280 µM; Minimal bactericidal concentration (*MBC) (P. aeruginosa PAO1 [4]; 99.9% reduction): > 1280 * > 1280 µM; Minimal inhibitory concentration (MIC) (P. aeruginosa PAO1 [4]; [16]): > 1280 * > 1280 µM; MBC (S. epidermidis SI8): 640 µM; MIC (S. epidermidis SI8): 320 µM; MBC ([7]; 99.9% reduction): 640 µM; MIC ([7]; 24 h): 320 µM; Minimal bactericidal concentration (*MBC) (E. coli H64; E. coli H64, 99.9% reduction): 640 *640 µM; Minimal inhibitory concentration (MIC) (E. coli H64; [19]): 640 *640 µM; Minimal bactericidal concentration (*MBC) (E. coli ATCC 11229; [22]): 640 *640 µM; Minimal inhibitory concentration (MIC) (E. coli ATCC 11229; [23]): 640 *640 µM; reduced adhesion to polystyrene (S. epidermidis B374 [11]): 25–46%; reduced adhesion to polystyrene [12]: 25–46%; reduction of adhesion to glass (P. aeruginosa PAO1 [13]): approximately 20%; MBC (S. aureus ATCC 6538; S. aureus ATCC 6538): 640 µM; MIC (S. aureus ATCC 6538; S. aureus ATCC 6538): 320 µM; Minimal bactericidal concentration (*MBC) (S. aureus MRSA R98; 99.9% reduction): 640 *640 µM; Minimal inhibitory concentration (MIC) (S. aureus MRSA R98; [16]): 640 *640 µM
CC(=O)[O-].CCCCCCCCCCCCCC(=O)N(C)CCC[N+](C)(C)C [AcC14, [(3-tetradecyilomethylo-amine)propyl] trimethylammonium acetate] | 0.96 | 24.5 ± 3.5 | 1.01 | 25.7 ± 4 | 0.97 | 194 ± 1 | 0.95 | 189 ± 1.4 | 1280 | > 1280 | > 1280 | > 1280 | 15 | 160 | 160 | 160 | 160 | 160 | 160 | 0.0054 | Minimal bactericidal concentration (*MBC) (S. epidermidis B374 [6]; S. epidermidis B374, 99.9% reduction): 40 *40 µM; Minimal inhibitory concentration (MIC) (S. epidermidis B374 [6]; S. epidermidis B374, 24 h, 37 °C, >90% growth inhibition): 40 *40 µM; Minimal bactericidal concentration (*MBC) (E. coli ATCC 11229; [22]): 320 *320 µM; Minimal inhibitory concentration (MIC) (E. coli ATCC 11229; [23]): 320 *320 µM; biofilm eradication [14]: 70–80%; MIC (S. aureus ATCC 6538; [20]): 160 µM; MBC (S. aureus ATCC 6538; [21]): 160 µM; MBC (S. aureus MRSA R98; 99.9% reduction): 160 µM; MIC (S. aureus MRSA R98; [16]): 160 µM
